# Source: ChEMBL document CHEMBL5042543, “Bridged Piperidine Analogues of a High Affinity Naphthalene-Based P2Y14R Antagonist” (J Med Chem, 2022)
# Assays:
# [1] = target: Sigma non-opioid intracellular receptor 1 (Homo sapiens, UniProt Q99720); assay: Inhibition of sigma 1 receptor (unknown origin) assessed as binding constant
# [2] = target: Sigma intracellular receptor 2 (Homo sapiens, UniProt Q5BJF2); assay: Inhibition of sigma 2 receptor (unknown origin) assessed as binding constant
# [3] = target: Translocator protein (Homo sapiens, UniProt P30536); assay: Inhibition of TSPO receptor (unknown origin) assessed as binding constant
# Chain of Translocator protein (P30536 whole entry): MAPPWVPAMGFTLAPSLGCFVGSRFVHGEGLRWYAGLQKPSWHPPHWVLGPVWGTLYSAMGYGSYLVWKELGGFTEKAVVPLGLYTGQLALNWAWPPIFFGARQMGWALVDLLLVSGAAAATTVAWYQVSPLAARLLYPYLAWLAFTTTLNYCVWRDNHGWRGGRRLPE
# [4] = target: D(1B) dopamine receptor (Homo sapiens, UniProt P21918); assay: Inhibition of dopamine D5 receptor (unknown origin) assessed as binding constant
# Chain of D(1B) dopamine receptor (P21918 whole entry): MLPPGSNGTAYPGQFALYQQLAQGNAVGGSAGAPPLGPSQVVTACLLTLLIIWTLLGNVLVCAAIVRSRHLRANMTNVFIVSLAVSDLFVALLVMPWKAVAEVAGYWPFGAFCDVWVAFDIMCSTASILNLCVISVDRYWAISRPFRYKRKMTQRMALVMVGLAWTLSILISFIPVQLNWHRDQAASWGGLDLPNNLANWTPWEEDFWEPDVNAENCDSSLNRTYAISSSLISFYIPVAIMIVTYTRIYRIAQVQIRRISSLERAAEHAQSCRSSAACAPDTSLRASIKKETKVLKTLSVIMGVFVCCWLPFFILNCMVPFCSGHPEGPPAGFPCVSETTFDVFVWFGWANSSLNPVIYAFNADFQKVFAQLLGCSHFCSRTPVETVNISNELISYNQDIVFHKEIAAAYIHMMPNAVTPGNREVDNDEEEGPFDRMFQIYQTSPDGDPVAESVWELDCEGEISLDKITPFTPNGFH
# [5] = target: Beta-3 adrenergic receptor (Homo sapiens, UniProt P13945); assay: Inhibition of adrenergic beta 3 receptor (unknown origin) assessed as binding constant
# Chain of Beta-3 adrenergic receptor (P13945 whole entry): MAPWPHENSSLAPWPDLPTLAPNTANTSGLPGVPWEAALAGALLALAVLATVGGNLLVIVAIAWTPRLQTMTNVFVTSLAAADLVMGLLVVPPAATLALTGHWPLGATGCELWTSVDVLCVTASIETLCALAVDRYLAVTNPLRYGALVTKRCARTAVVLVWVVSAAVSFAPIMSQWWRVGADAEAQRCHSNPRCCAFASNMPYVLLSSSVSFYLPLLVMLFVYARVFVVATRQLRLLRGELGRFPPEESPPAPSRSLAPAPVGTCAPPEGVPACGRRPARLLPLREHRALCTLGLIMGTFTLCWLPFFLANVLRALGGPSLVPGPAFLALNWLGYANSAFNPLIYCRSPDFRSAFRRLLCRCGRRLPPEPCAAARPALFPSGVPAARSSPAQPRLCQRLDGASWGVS
# [6] = target: T1, P2Y purinoceptor 14 (Homo sapiens, UniProt Q15391); assay: cell-based
# T1 sequence (Q15391 whole entry): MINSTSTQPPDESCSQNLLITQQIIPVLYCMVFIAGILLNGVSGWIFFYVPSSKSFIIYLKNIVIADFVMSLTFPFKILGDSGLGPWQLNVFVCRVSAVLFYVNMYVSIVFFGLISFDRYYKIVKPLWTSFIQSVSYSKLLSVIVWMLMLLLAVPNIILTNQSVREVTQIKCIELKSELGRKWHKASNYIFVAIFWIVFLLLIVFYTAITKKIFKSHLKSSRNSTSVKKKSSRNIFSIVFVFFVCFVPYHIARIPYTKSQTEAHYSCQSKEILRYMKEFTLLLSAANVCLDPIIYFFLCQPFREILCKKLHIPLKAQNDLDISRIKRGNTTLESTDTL
# Description: Inhibition of fluorescent antagonist binding to human P2Y14R expressed in CHO cells preincubated for 30 mins followed by 6-amino-9-(2-carboxy-4-((6-(4-(4-(4-(4-(3-carboxy 6-(4-(trifluoromethyl)phenyl)naphthalen-1-yl)phenyl)piperidin-1-yl)butyl)-1H-1,2,3-triazol-1-yl)hexyl)carbamoyl)phenyl)-3-iminio-5-sulfo-3H-xanthene-4-sulfonate addition and measured after 30 mins by BD FACSCalibur flow cytometry analysis
# [7] = Aqueous solubility of the compound at pH 7.4
# [8] = Distribution coefficient, logD of compound at pH 7.4 by HPLC analysis; format: physicochemical; settings: octanol/water
# [9] = Aqueous solubility of the compound at pH 4
# [10] = target: D(3) dopamine receptor (Homo sapiens, UniProt P35462); assay: Inhibition of dopamine D3 receptor (unknown origin) assessed as binding constant
# Chain of D(3) dopamine receptor (P35462 whole entry): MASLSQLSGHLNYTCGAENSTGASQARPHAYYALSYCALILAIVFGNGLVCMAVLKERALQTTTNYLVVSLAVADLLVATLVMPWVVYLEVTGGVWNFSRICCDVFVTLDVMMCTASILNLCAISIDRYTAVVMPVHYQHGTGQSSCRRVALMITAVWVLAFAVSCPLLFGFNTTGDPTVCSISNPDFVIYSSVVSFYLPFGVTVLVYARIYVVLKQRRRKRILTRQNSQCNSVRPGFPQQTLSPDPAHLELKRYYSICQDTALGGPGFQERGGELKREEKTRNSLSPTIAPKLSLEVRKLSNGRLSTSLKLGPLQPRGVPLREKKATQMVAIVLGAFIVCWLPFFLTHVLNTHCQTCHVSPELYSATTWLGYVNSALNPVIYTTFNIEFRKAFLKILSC
# [11] = Plasma protein binding in mouse assessed as compound remaining at 5 hrs; format: ADME, cell-free
# [12] = Plasma protein binding in rat assessed as compound remaining at 5 hrs; format: ADME, cell-free
# [13] = Plasma protein binding in human assessed as bound fraction; format: ADME, cell-free
# [14] = target: T2, liver carboxylesterase (Sus scrofa, UniProt Q29550); assay: Stability of the compound in aqueous medium at pH 7.4 assessed as half life in presence of porcine liver esterase; format: physicochemical; settings: pig
# T2 sequence (Q29550 whole entry): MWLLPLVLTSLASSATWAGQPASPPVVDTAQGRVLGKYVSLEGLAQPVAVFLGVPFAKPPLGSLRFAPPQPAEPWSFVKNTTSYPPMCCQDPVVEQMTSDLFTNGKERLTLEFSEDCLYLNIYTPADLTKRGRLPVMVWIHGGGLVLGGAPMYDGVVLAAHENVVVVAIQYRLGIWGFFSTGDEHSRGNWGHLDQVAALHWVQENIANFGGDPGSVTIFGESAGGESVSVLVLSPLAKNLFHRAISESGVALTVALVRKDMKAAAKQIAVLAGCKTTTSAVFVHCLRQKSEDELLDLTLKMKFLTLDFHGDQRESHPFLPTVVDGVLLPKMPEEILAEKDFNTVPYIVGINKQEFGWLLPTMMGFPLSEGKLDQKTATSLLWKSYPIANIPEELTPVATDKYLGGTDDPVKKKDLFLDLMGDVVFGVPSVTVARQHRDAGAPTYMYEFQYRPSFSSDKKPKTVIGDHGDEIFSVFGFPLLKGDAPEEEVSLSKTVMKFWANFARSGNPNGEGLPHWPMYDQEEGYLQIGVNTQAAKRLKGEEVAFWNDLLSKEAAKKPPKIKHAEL
# [15] = target: T3, P2Y purinoceptor 14 (Mus musculus, UniProt Q9ESG6); assay: Inhibition of fluorescent antagonist binding to mouse P2Y14R expressed in HEK293 cells preincubated for 30 mins followed by addition of 6-amino-9-(2-carboxy-4-((6-(4-(4-(4-(4-(3-carboxy-6-(4-(trifluoromethyl)phenyl)naphthalen-1-yl)phenyl)piperidin-1-yl)butyl)-1H-1,2,3-triazol-1-yl)hexyl)carbamoyl)phenyl)-3-iminio-5-sulfo-3H-xanthene-4-sulfonate incubated for 30 mins by BD FACSCalibur flow …; format: cell-based
# T3 sequence (Q9ESG6 whole entry): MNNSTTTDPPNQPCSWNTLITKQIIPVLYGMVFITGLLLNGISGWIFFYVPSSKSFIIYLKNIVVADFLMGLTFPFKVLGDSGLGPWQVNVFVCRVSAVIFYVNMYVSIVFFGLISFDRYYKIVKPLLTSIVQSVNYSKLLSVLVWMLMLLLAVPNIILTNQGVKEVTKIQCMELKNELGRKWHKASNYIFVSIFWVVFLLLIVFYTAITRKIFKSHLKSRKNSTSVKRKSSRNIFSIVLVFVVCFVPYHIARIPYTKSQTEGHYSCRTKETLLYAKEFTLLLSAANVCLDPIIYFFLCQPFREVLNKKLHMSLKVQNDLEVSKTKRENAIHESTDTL
# Chain of Sigma non-opioid intracellular receptor 1 (Q99720 whole entry): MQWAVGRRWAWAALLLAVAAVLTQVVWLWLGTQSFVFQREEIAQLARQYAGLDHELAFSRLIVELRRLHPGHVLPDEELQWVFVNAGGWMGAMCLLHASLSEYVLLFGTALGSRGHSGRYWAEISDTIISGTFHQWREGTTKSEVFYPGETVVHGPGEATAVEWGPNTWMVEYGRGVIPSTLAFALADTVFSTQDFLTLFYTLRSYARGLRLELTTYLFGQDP
# Chain of Sigma intracellular receptor 2 (Q5BJF2 whole entry): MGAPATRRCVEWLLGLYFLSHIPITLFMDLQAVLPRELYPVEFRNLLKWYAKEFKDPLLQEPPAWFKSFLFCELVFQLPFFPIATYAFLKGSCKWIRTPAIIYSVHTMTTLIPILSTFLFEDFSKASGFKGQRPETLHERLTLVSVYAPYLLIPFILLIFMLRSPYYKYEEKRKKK
structure (smiles),measurement,setting,value
O=C(O)c1cc(-c2ccc([C@H]3C[C@H]4C[C@@H]3NC4=O)cc2)c2ccc(-c3ccc(C(F)(F)F)cc3)cc2c1,Ki,[1],2600 nM
same,Ki,[2],1400 nM
same,Ki,[3],1400 nM
same,Ki,[4],> 1000 nM
same,Ki,[5],> 1000 nM
CCOC(=O)N1C[C@H]2C[C@@H]1C[C@@H]2c1ccc(-c2cc(C(=O)O)cc3cc(-c4ccc(C(F)(F)F)cc4)ccc23)cc1,IC50,[6],442 nM
O=C(O)c1cc(-c2ccc(C3CC4CCC(C3)N4)cc2)c2ccc(-c3ccc(C(F)(F)F)cc3)cc2c1 (stereo not given),solubility,[7]; buffer,0.13 µg/mL
same,logD,[8]; read-out: logD,2.3
same,solubility,[9]; buffer,0.38 µg/mL
same,IC50,[6],38.3 nM
N[C@H]1C[C@@H](CO)[C@H](c2ccc(-c3cc(C(=O)O)cc4cc(-c5ccc(C(F)(F)F)cc5)ccc34)cc2)C1,Ki,[1],1300 nM
same,Ki,[2],1100 nM
same,logD,[8]; read-out: logD,0.96
same,Ki,[10],330 nM
same,Ki,[3],1800 nM
same,Ki,[5],> 1000 nM
CN(C)C(=O)COC(=O)c1cc(-c2ccc([C@@H]3C[C@@H]4C[C@H]3NC4=O)cc2)c2ccc(-c3ccc(C(F)(F)F)cc3)cc2c1,Ki,[1],6900 nM
same,Fu,[11],0%
same,Fu,[12],0%
same,PPB,[13],99.79%
same,half-life,[14],> 72 h
N[C@H]1C[C@@H](C(=O)O)C[C@@H]1c1ccc(-c2cc(C(=O)O)cc3cc(-c4ccc(C(F)(F)F)cc4)ccc23)cc1,IC50,[6],269 nM
CC1CNCCC1c1ccc(-c2cc(C(=O)O)cc3cc(-c4ccc(C(F)(F)F)cc4)ccc23)cc1 (stereo not given),logD,[8]; read-out: logD,2.8
O=C(O)c1cc(-c2ccc([C@@H]3C[C@@H]4C[C@H]3CN4)cc2)c2ccc(-c3ccc(C(F)(F)F)cc3)cc2c1,Ki,[1],2100 nM
same,Ki,[2],1200 nM
same,Ki,[10],1000 nM
same,IC50,[15],13.4 nM
same,Ki,[3],1800 nM
same,Ki,[4],> 1000 nM
same,Ki,[5],> 1000 nM
O=C(O)c1cc(-c2ccc(C34CCNCC3C4(F)F)cc2)c2ccc(-c3ccc(C(F)(F)F)cc3)cc2c1 (racemic),logD,[8]; read-out: logD,2.7
N[C@@H]1C[C@H](C(=O)O)[C@@H](c2ccc(-c3cc(C(=O)O)cc4cc(-c5ccc(C(F)(F)F)cc5)ccc34)cc2)C1,Ki,[2],2000 nM
O=C(O)c1cc(-c2ccc([C@@]3(O)C[C@H]4CC[C@@H]3CN4)cc2)c2ccc(-c3ccc(C(F)(F)F)cc3)cc2c1 (racemic),logD,[8]; read-out: logD,0.96
same,IC50,[6],15.6 nM
O=C(O)c1cc(-c2ccc(C34CCN(CC3)CC4)cc2)c2ccc(-c3ccc(C(F)(F)F)cc3)cc2c1,solubility,[7]; buffer,0.55 µg/mL
same,logD,[8]; read-out: logD,4.2
same,solubility,[9]; buffer,1.5 µg/mL
N[C@@H]1C[C@H](CO)[C@@H](c2ccc(-c3cc(C(=O)O)cc4cc(-c5ccc(C(F)(F)F)cc5)ccc34)cc2)C1,Ki,[2],1000 nM
N[C@@H]1C[C@H](CO)C[C@H]1c1ccc(-c2cc(C(=O)O)cc3cc(-c4ccc(C(F)(F)F)cc4)ccc23)cc1,logD,[8]; read-out: logD,1.1
CC(=O)N1C[C@@H]2C[C@H]1C[C@H]2c1ccc(-c2cc(C(=O)O)cc3cc(-c4ccc(C(F)(F)F)cc4)ccc23)cc1,Ki,[1],4200 nM
same,Ki,[2],1700 nM
same,logD,[8],0.55
same,IC50,[6],64.1 nM
same,Ki,[4],> 1000 nM
O=C(O)c1cc(-c2ccc(C3(O)[C@H]4CC[C@H]3CN(Cc3ccccc3)C4)cc2)c2ccc(-c3ccc(C(F)(F)F)cc3)cc2c1 (stereo not given in full),solubility,[7]; buffer,0.14 µg/mL
same,logD,[8]; read-out: logD,3.3
same,solubility,[9]; buffer,0.48 µg/mL
O=C(O)c1cc(-c2ccc(C3=CC4CCC(C3)N4)cc2)c2ccc(-c3ccc(C(F)(F)F)cc3)cc2c1 (racemic),logD,[8]; read-out: logD,2.3
CC(=O)N1C[C@H]2C[C@@H]1C[C@@H]2c1ccc(-c2cc(C(=O)O)cc3cc(-c4ccc(C(F)(F)F)cc4)ccc23)cc1,logD,[8]; read-out: logD,0.92
same,IC50,[6],99.3 nM
COC1(c2ccc(-c3cc(C(=O)O)cc4cc(-c5ccc(C(F)(F)F)cc5)ccc34)cc2)[C@H]2CC[C@H]1CNC2 (stereo not given in full),solubility,[7]; aqueous medium,0.88 µg/mL
same,logD,[8]; read-out: logD,1.4
same,solubility,[9]; buffer,1.81 µg/mL
same,IC50,[6],44.6 nM
CC(=O)N1C[C@@H]2C[C@H]1C[C@H]2c1ccc(-c2cc(C(=O)O)cc3cc(-c4ccc(C(F)(F)F)cc4)ccc23)cc1 (racemic),solubility,[7]; buffer,2.53 µg/mL
same,logD,[8]; read-out: logD,0.92
same,solubility,[9]; buffer,0.13 µg/mL
CC1CC(c2ccc(-c3cc(C(=O)O)cc4cc(-c5ccc(C(F)(F)F)cc5)ccc34)cc2)CCN1 (stereo not given),logD,[8]; read-out: logD,2.1
O=C(O)c1cc(-c2ccc([C@@H]3C[C@@H]4C[C@H]3C(=O)N4)cc2)c2ccc(-c3ccc(C(F)(F)F)cc3)cc2c1,Ki,[1],3200 nM
same,Ki,[2],1900 nM
same,logD,[8]; read-out: logD,0.49
same,Ki,[5],> 1000 nM
O=C(O)c1cc(-c2ccc(C3(O)[C@H]4CC[C@H]3CNC4)cc2)c2ccc(-c3ccc(C(F)(F)F)cc3)cc2c1 (stereo not given in full),solubility,[7]; buffer,0.54 µg/mL
same,Ki,[1],1700 nM
same,Ki,[2],1700 nM
same,logD,[8]; read-out: logD,1.2
same,solubility,[9]; buffer,2.32 µg/mL
same,IC50,[6],21.3 nM
same,IC50,[15],15.5 nM
O=C(O)c1cc(-c2ccc(C34CCNCC3C4)cc2)c2ccc(-c3ccc(C(F)(F)F)cc3)cc2c1 (racemic),solubility,[7]; buffer,0.17 µg/mL
same,logD,[8]; read-out: logD,2.4
same,solubility,[9]; aqueous medium,1.32 µg/mL
same,IC50,[6],45.5 nM
CC(=O)N1C[C@@H]2C[C@H]1C[C@H]2c1ccc(-c2cc(C(=O)OCC(=O)N(C)C)cc3cc(-c4ccc(C(F)(F)F)cc4)ccc23)cc1,half-life,[14],> 72 h
O=C(O)c1cc(-c2ccc([C@H]3C[C@H]4C[C@@H]3CN4)cc2)c2ccc(-c3ccc(C(F)(F)F)cc3)cc2c1 (racemic),solubility,[7]; buffer,0.47 µg/mL
same,Ki,[2],650 nM
same,logD,[8]; read-out: logD,2
same,solubility,[9]; buffer,2.73 µg/mL
same,Ki,[5],> 1000 nM
O=C(O)c1cc(-c2ccc(C3[C@H]4CC[C@H]3CNC4)cc2)c2ccc(-c3ccc(C(F)(F)F)cc3)cc2c1 (stereo not given in full),solubility,[7]; buffer,0.16 µg/mL
same,logD,[8]; read-out: logD,3
same,solubility,[9]; buffer,0.32 µg/mL
same,IC50,[6],696 nM
N[C@H]1C[C@@H](C(=O)O)[C@H](c2ccc(-c3cc(C(=O)O)cc4cc(-c5ccc(C(F)(F)F)cc5)ccc34)cc2)C1,logD,[8]; read-out: logD,-0.57
O=C(O)c1cc(-c2ccc([C@@H]3C[C@H]4CN[C@@H]3C4)cc2)c2ccc(-c3ccc(C(F)(F)F)cc3)cc2c1,Ki,[2],1000 nM
same,logD,[8]; read-out: logD,2.1
same,IC50,[15],90.9 nM
CN(C)C(=O)COC(=O)c1cc(-c2ccc([C@@H]3C[C@@H]4C[C@H]3C(=O)N4)cc2)c2ccc(-c3ccc(C(F)(F)F)cc3)cc2c1,half-life,[14],> 72 h
O=C(O)c1cc(-c2ccc([C@@H]3CCN[C@@H]4C[C@@H]43)cc2)c2ccc(-c3ccc(C(F)(F)F)cc3)cc2c1 (racemic),solubility,[7]; buffer,0.05 µg/mL
same,logD,[8]; read-out: logD,1.8
same,solubility,[9]; buffer,0.24 µg/mL
O=C(O)c1cc(-c2ccc([C@@]3(O)C[C@H]4CC[C@@H](C3)N4)cc2)c2ccc(-c3ccc(C(F)(F)F)cc3)cc2c1,logD,[8]; read-out: logD,1.2
O=C(O)c1cc(-c2ccc([C@]3(O)C[C@H]4CC[C@@H]3CN4)cc2)c2ccc(-c3ccc(C(F)(F)F)cc3)cc2c1 (racemic),logD,[8]; read-out: logD,0.74
same,IC50,[6],114 nM
O=C(O)c1cc(-c2ccc([C@H]3CCN[C@@H]4C[C@H]34)cc2)c2ccc(-c3ccc(C(F)(F)F)cc3)cc2c1 (relative stereo),solubility,[7]; buffer,0.51 µg/mL
same,logD,[8]; read-out: logD,2.6
same,solubility,[9]; aqueous medium,0.1 µg/mL
N[C@@H]1C[C@H](C(=O)O)C[C@H]1c1ccc(-c2cc(C(=O)O)cc3cc(-c4ccc(C(F)(F)F)cc4)ccc23)cc1,logD,[8]; read-out: logD,-0.48
O=C(O)c1cc(-c2ccc(C3CC4CCC3CN4)cc2)c2ccc(-c3ccc(C(F)(F)F)cc3)cc2c1 (stereo not given),logD,[8]; read-out: logD,1.7
same,IC50,[6],25.1 nM
